# Test results: patent US12624309B2, “Enol ether properfume” (Firmenich SA, priority 2020, dated 2026)
# Experiment: Acid-catalyzed hydrolysis of enol ethers in THF/1 M HCl, percent remaining by GC-FID
# Format: physicochemical
# Conditions: for percent remaining, 24 h / percent remaining, 48 h / percent remaining, 72 h / percent remaining, 168 h / percent remaining, 336 h / percent remaining, 504 h / percent remaining, 672 h / percent remaining, initial / rate of hydrolysis / hydrolytic stability compared to corresponding enol ethers prepared from alkyl alcohols: THF/1M HCl (80:20 v/v); for percent remaining, 24 h / percent remaining, 48 h / percent remaining, 72 h / percent remaining, 168 h / percent remaining, 336 h / percent remaining, 504 h / percent remaining, 672 h / percent remaining, initial: room temperature; for percent remaining, initial: time zero; for rate of hydrolysis / hydrolytic stability compared to corresponding enol ethers prepared from alkyl alcohols: in words; for enol ether remained after 504 h (21 days): Table 1, THF/1M HCl
# Experimental: Each enol ether was dissolved in a 4:1 THF/1 M HCl mixture and the percent remaining over time measured relative to an internal standard.
# After mixing, 2 mL of this solution were removed with a volumetric pipet and used to obtain the time zero measurement. 2 mL of 1 M HCl were mixed with the remaining 8 mL of the THF solution. This mixture was divided into 5 mL vials (1 mL per vial). The vials were gently topped with nitrogen and fitted with screw caps around which parafilm was wrapped. The vials were stored at room temperature until analyzed. For analyses, 2 mL of ethyl acetate was added to a vial and mixed. After phase separation, the top phase was collected and washed with saturated sodium carbonate (1 mL). Samples of the organic phase were analyzed by GC-FID. For the time zero sample, 0.5 mL of deionized water was added to the 2 mL taken from the original THF solution. 1 mL of this solution was added to a 5 mL vial and diluted with 2 mL of ethyl acetate and mixed. The top phase was collected and washed with saturated sodium carbonate (1 mL). The top phase then was analyzed by GC-FID. The percent of enol ether remaining was determined by dividing the peak area ratio of the enol ether to internal standard by the ratio measured at time zero.
Compound,"percent remaining, 24 h","percent remaining, 48 h","percent remaining, 72 h","percent remaining, 168 h","percent remaining, 336 h","percent remaining, 504 h","percent remaining, 672 h","percent remaining, initial",rate of hydrolysis / hydrolytic stability compared to corresponding enol ethers prepared from alkyl alcohols,enol ether remained after 504 h (21 days)
"COC(=O)C(C)(C)OC=C(C)c1ccc(C)cc1 [Compound 28, (±)-methyl 2-methyl-2-((2-(p-tolyl)prop-1-en-1-yl)oxy)propanoatemethyl]",99.3%,98.5%,98.5%,96.2%,92.1%,89.7%,85.8%,100%,Slower rates of hydrolysis,–
"C(=Cc1ccccc1)OCCc1ccccc1 [(2-phenethoxyvinyl)benzene, reference compound]",94.6%,90.0%,83.7%,66.4%,45.2%,35.9%,25.0%,100%,–,39.5%
"CC/C=C\CCOC(=O)C(C)OC=Cc1ccccc1 (racemic) [Compound 39, (±)-(Z)-hex-3-en-1-yl 2-(styryloxy)propanoate]",96.3%,95.3%,90.7%,79.6%,67.3%,53.0%,41.2%,100%,–,–
"CC(=COCCc1ccccc1)c1ccc(C)cc1 [1-methyl-4-(1-phenethoxyprop-1-en-2-yl)benzene, reference compound]",97.8%,95.5%,93.9%,85.0%,70.4%,57.3%,42.5%,100%,–,–
"COC(=O)C(C)(C)OC=Cc1ccccc1 [Compound 10, methyl 2-methyl-2-(styryloxy)propanoate]",97.2%,95.3%,93.7%,86.0%,77%,70.8%,64.1%,100%,–,–
"CC/C=C\CCOC=Cc1ccc(OC)cc1 [Compound 51, 1-(2-(((Z)-hex-3-en-1-yl)oxy)vinyl)-4-methoxybenzene, reference compound]",89.1%,80.2%,72.4%,52.5%,29.1%,14.6%,10.1%,100%,–,14.6%
"CC/C=C\CCOC(=O)C(C)OC=Cc1ccc(OC)cc1 (racemic) [Compound 42, (±)-(Z)-hex-3-en-1-yl 2-((4-methoxystyryl)oxy)propanoate]",95.1%,93.9%,89.8%,78.1%,60.1%,46.8%,35.2%,100%,–,46.8%
"COC(=O)C(C)(C)OC=C(C)c1ccc(OC)cc1 [Compound 27, methyl 2-((2-(4-methoxyphenyl)prop-1-en-1-yl)oxy)-2-methylpropanoate]",102%,101%,99.7%,97.8%,87.7%,89.1%,84.7%,100%,–,–
"CC(OC=Cc1ccccc1)C(=O)OCCc1ccccc1 (racemic) [Compound 40, (±)-phenethyl 2-(styryloxy)propanoate]",97.3%,95.0%,91.8%,78.5%,59.0%,53.0%,41.4%,100%,–,–
"CC(=COCCc1ccccc1)c1ccccc1 [(1-phenethoxyprop-1-en-2-yl)benzene, reference compound]",98.4%,96.5%,93.8%,86.1%,72.7%,59.0%,43.7%,100%,–,–

# Second part, the compound after the results:
"percent remaining, 24 h","percent remaining, 48 h","percent remaining, 72 h","percent remaining, 168 h","percent remaining, 336 h","percent remaining, 504 h","percent remaining, 672 h","percent remaining, initial",rate of hydrolysis / hydrolytic stability compared to corresponding enol ethers prepared from alkyl alcohols,enol ether remained after 504 h (21 days),Compound
92.9%,85.7%,80.5%,60.3%,41.7%,28.1%,17.9%,100%,–,–,"CC(=COC(C)(C)CCCC(C)C)c1ccccc1 [(1-(2,6-dimethylheptan-2-yloxy)prop-1-en-2-yl)benzene, reference compound]"
96.8%,94.8%,93.8%,87.6%,76.9%,67.6%,56.2%,100%,–,–,"CCC(C)OC(=O)C(C)OC=C(C)c1ccc(OC)cc1 (racemic) [Compound 49, (±)-sec-butyl 2-((2-(4-methoxyphenyl)prop-1-en-1-yl)oxy)propanoate]"
96.6%,94.4%,91.2%,81.6%,65.0%,51.1%,40.0%,100%,–,–,"CC/C=C\CCOC(=O)C(C)OC=C(C)c1ccc(OC)cc1 (racemic) [Compound 47, (±)-(Z)-hex-3-en-1-yl 2-((2-(4-methoxyphenyl)prop-1-en-1-yl)oxy)propanoate]"
84.9%,72.0%,61.7%,33.6%,10%,4.5%,0%,100%,–,4.5%,"CCCCCC(CC)OC=Cc1ccccc1 (centres unmarked) [(2-(octan-3-yloxy)vinyl)benzene, reference compound]"
96.2%,92.4%,89.3%,76.6%,57.3%,44.5%,33.6%,100%,–,–,"CCCCCC(CC)OC=C(C)c1ccccc1 (centres unmarked) [(1-(octan-3-yloxy)prop-1-en-2-yl)benzene, reference compound]"
99.3%,99.5%,98.9%,96.5%,93.3%,90.4%,88.6%,100%,improved hydrolytic stability,–,"CCCCCC(CC)OC(=O)C(C)OC=C(C)c1ccccc1 (racemic) [Compound 44, (±)-octan-3-yl 2-((2-phenylprop-1-en-1-yl)oxy)propanoate]"
–,–,100%,98.1%,93.6%,90.0%,89.6%,100%,improved hydrolytic stability,–,"COC(=O)C(C)(C)OC=C(C)c1ccccc1 [Compound 25, methyl 2-methyl-2-((2 phenylprop-1-en-1-yl)oxy)propanoate]"
98.0%,97.0%,95.8%,90.9%,82.4%,74.5%,66.6%,100%,Slower rates of hydrolysis,–,"CCC(C)OC(=O)C(C)OC=C(C)c1ccc(C)cc1 (racemic) [Compound 46, (±)-sec-butyl 2-((2-(p-tolyl)prop-1-en-1-yl)oxy)propanoate]"
99.7%,99.2%,98.1%,94.1%,91.7%,88.4%,84.4%,100%,–,–,"CCCCCC(CC)OC(=O)C(C)OC=Cc1ccccc1 (racemic) [Compound 41, (±)-octan-3-yl 2-(styryloxy)propanoate]"
